As usually defined, the IC50 is the concentration needed to halve the response being measured.

Where two headings read alike, the source gives them in different places.

The target of the assay is Human DGAT2 (hDGAT2) (Homo sapiens (Human), UniProt Q96PD7). In words: In vitro DGAT2 assay, IC50 determination with hDGAT2 membrane fraction. The note with it: read-out: DGAT2 IC50. It is filed as biochemical. A digest of the protocol:
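CHAPS-solubilized membrane fraction of FLAG-tagged hDGAT2 from baculovirus-infected SF9 cells (0.01 mg/mL) in 100 mM Hepes-NaOH pH 7.4, 20 mM MgCl2, 200 nM methyl arachidonyl fluorophosphonate; compounds pre-incubated 20 min with 0.04% BSA. Reaction 40 min at room temperature, stopped with H3PO4. [^14C]tridecanoylglycerol in organic phase counted; 11-point geometric mean IC50.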

[1] abbreviates: geometric mean, background for complete inhibition of DGAT2 obtained with 50 μM (1R,2R)-2-({3′-Fluoro-4′-[(6-fluoro-1,3-benzothiazol-2-yl)amino]-1,1′-biphenyl-4-yl}carbonyl)cyclopentanecarboxylic acid.

Chain of Human DGAT2 (hDGAT2) (Q96PD7 whole entry): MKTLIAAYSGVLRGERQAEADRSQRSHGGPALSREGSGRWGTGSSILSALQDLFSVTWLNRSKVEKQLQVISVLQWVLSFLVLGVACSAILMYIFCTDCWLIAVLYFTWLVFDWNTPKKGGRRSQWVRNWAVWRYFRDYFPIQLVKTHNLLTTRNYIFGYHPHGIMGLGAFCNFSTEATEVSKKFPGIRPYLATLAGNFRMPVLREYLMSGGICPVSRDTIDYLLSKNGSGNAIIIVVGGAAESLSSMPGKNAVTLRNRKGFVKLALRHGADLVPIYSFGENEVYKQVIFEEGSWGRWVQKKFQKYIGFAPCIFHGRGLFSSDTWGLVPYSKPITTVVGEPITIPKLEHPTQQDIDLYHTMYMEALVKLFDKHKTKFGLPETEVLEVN

On to `O=C([C@@H]1CCCN(c2ccc3nc(C4(c5ccc[n+]([O-])c5)CC4)[nH]c3n2)C1)N1CCCC1` [Example 160, (R)-3-(1-(5-(3-(Pyrrolidine-1-carbonyl)piperidin-1-yl)-3H-imidazo[4,5-b]pyridin-2-yl)cyclopropyl)pyridine 1-oxide], for which the IC50 worked out at 789 nM.

In the case of `O=C([C@@H]1CCCN(c2ccc3nc(-c4coc(C5CC5)n4)[nH]c3n2)C1)N1CCCC1` [Example 118, (R)-(1-(2-(2-Cyclopropyloxazol-4-yl)-3H-imidazo[4,5-b]pyridin-5-yl)piperidin-3-yl)(pyrrolidin-1-yl)methanone], the IC50 under setting [1] turned out to be 301 nM.

Regarding `CC(C)c1cccc(-c2nc3ccc(N4CCC[C@@H](C(=O)N5CCCC5)C4)nc3[nH]2)c1O` [Example 23, (R)-(1-(2-(2-Hydroxy-3-isopropylphenyl)-3H-imidazo[4,5-b]pyridin-5-yl)piperidin-3-yl)(pyrrolidin-1-yl)methanone], the IC50 under setting [1] is 432 nM.

For the compound `CC(C)Cc1csc(-c2nc3ccc(N4CCC[C@@H](C(=O)N5CCCC5)C4)nc3[nH]2)n1` [Example 2, (R)-(1-(2-(4-Isobutylthiazol-2-yl)-3H-imidazo[4,5-b]pyridin-5-yl)piperidin-3-yl)(pyrrolidin-1-yl)methanone], the IC50 under setting [1] turned out to be 2.71 nM.

Regarding `O=C([C@@H]1CCCN(c2ccc3nc(-c4cccc(C5CC5)n4)[nH]c3n2)C1)N1CCC(F)(F)C1` [Example 184, (R)-(1-(2-(6-Cyclopropylpyridin-2-yl)-3H-imidazo[4,5-b]pyridin-5-yl)piperidin-3-yl)(3,3-difluoropyrrolidin-1-yl)methanone], the IC50 under setting [1] worked out at 15.2 nM.

For `O=C([C@@H]1CCCN(c2ccc3nc(-c4cccc(C(F)F)n4)[nH]c3n2)C1)N1CCCC1` [Example 122, (R)-(1-(2-(6-(Difluoromethyl)pyridin-2-yl)-3H-imidazo[4,5-b]pyridin-5-yl)piperidin-3-yl)(pyrrolidin-1-yl)methanone], the IC50 under setting [1] was determined as 10.9 nM.

Regarding `O=C([C@@H]1CCCN(c2ccc3nc(-c4cccc(C5CC5)n4)[nH]c3n2)C1)N1CCOCC1` [Example 153, (R)-(1-(2-(6-Cyclopropylpyridin-2-yl)-3H-imidazo[4,5-b]pyridin-5-yl)piperidin-3-yl)(morpholino)methanone], the IC50 came out at 48.1 nM.

As for `O=C([C@@H]1CCCN(c2ccc3nc(C4(n5ccnc5)CC4)[nH]c3n2)C1)N1CCCC1` [Example 215, (R)-(1-(2-(1-(1H-Imidazol-1-yl)cyclopropyl)-3H-imidazo[4,5-b]pyridin-5-yl)piperidin-3-yl)(pyrrolidin-1-yl)methanone], the IC50 under setting [1] came out at 483 nM.

In the case of `O=C([C@@H]1CCCN(c2ccc3nc(C4(n5cc(C6CC6)cn5)CC4)[nH]c3n2)C1)N1CCCC1` [Example 77, (R)-(1-(2-(1-(4-Cyclopropyl-1H-pyrazol-1-yl)cyclopropyl)-3H-imidazo[4,5-b]pyridin-5-yl)piperidin-3-yl)(pyrrolidin-1-yl)methanone], the half-inhibitory concentration (IC50) under setting [1] was 107 nM.

With `Cc1cccc(-c2nc3ccc(N4CCC[C@@H](C(=O)N5CCCC5)C4)nc3[nH]2)n1` [Example 44, (R)-(1-(2-(6-Methylpyridin-2-yl)-3H-imidazo[4,5-b]pyridin-5-yl)piperidin-3-yl)(pyrrolidin-1-yl)methanone], the half-maximal inhibitory concentration (IC50) under setting [1] came out at 36.5 nM.

As to `Cc1csc(-c2nc3ccc(N4CCC[C@@H](C(=O)N5CCCC5)C4)nc3[nH]2)n1` [Example 11, (R)-(1-(2-(4-Methylthiazol-2-yl)-3H-imidazo[4,5-b]pyridin-5-yl)piperidin-3-yl)(pyrrolidin-1-yl)methanone], the IC50 under setting [1] was determined as 35 nM.

As to `CC(C)(O)c1cccc(-c2nc3ccc(N4CCC[C@@H](C(=O)N5CCCC5)C4)nc3[nH]2)n1` [Example 115, (R)-(1-(2-(6-(2-Hydroxypropan-2-yl)pyridin-2-yl)-3H-imidazo[4,5-b]pyridin-5-yl)piperidin-3-yl)(pyrrolidin-1-yl)methanone], under setting [1], the IC50 stood at 67.9 nM.

Turning to `CS(=O)(=O)c1cncc(-c2nc3ccc(N4CCC[C@@H](C(=O)N5CCCC5)C4)nc3[nH]2)c1` [Example 179, (R)-(1-(2-(5-(Methylsulfonyl)pyridin-3-yl)-3H-imidazo[4,5-b]pyridin-5-yl)piperidin-3-yl)(pyrrolidin-1-yl)methanone], the IC50 under setting [1] is 512 nM.

`C[C@H]1CCCN1C(=O)[C@@H]1CCCN(c2ccc3nc(C4(n5cc(Cl)cn5)CC4)[nH]c3n2)C1` [Example 202, ((R)-1-(2-(1-(4-Chloro-1H-pyrazol-1-yl)cyclopropyl)-3H-imidazo[4,5-b]pyridin-5-yl)piperidin-3-yl)((S)-2-methylpyrrolidin-1-yl)methanone]: under setting [1], the IC50 amounted to 321 nM.

For `O=C([C@@H]1CCCN(c2ccc3nc(C4(c5ccccc5)CC4)[nH]c3n2)C1)N1CCCC1` [Example 51, (R)-(1-(2-(1-Phenylcyclopropyl)-3H-imidazo[4,5-b]pyridin-5-yl)piperidin-3-yl)(pyrrolidin-1-yl)methanone], the half-inhibitory concentration (IC50) under setting [1] was 69.7 nM.

Turning to `CS(=O)(=O)c1cccc(-c2nc3ccc(N4CCC[C@@H](C(=O)N5CCCC5)C4)nc3[nH]2)c1` [Example 127, (R)-(1-(2-(3-(Methylsulfonyl)phenyl)-3H-imidazo[4,5-b]pyridin-5-yl)piperidin-3-yl)(pyrrolidin-1-yl)methanone], under setting [1], the 50% inhibitory concentration (IC50) amounted to 235 nM.

In the case of `N#Cc1cncc(-c2nc3ccc(N4CCC[C@@H](C(=O)N5CCCC5)C4)nc3[nH]2)c1` [Example 16, (R)-5-(5-(3-(Pyrrolidine-1-carbonyl)piperidin-1-yl)-3H-imidazo[4,5-b]pyridin-2-yl)nicotinonitrile], the IC50 under setting [1] worked out at 102 nM.

For `NS(=O)(=O)c1cccc(-c2nc3ccc(N4CCC[C@@H](C(=O)N5CCCC5)C4)nc3[nH]2)c1` [Example 114, (R)-3-(5-(3-(Pyrrolidine-1-carbonyl)piperidin-1-yl)-3H-imidazo[4,5-b]pyridin-2-yl)benzenesulfonamide], under setting [1], the IC50 came to 90.3 nM.

On to `N#Cc1ccc(-c2nc3ccc(N4CCC[C@@H](C(=O)N5CCCC5)C4)nc3[nH]2)cc1` [Example 13, (R)-4-(5-(3-(Pyrrolidine-1-carbonyl)piperidin-1-yl)-3H-imidazo[4,5-b]pyridin-2-yl)benzonitrile], for which the IC50 under setting [1] was 63.6 nM.

Turning to `O=C([C@@H]1CCCN(c2ccc3nc(-c4ccnc(N5CCOCC5)n4)[nH]c3n2)C1)N1CCCC1` [Example 25, (R)-(1-(2-(2-Morpholinopyrimidin-4-yl)-3H-imidazo[4,5-b]pyridin-5-yl)piperidin-3-yl)(pyrrolidin-1-yl)methanone], the IC50 under setting [1] is 297 nM.

Consider `CC(C)(C)c1csc(-c2nc3ccc(N4CCC[C@@H](C(=O)N5CCCC5)C4)nc3[nH]2)n1` [Example 42, (R)-(1-(2-(4-tert-Butylthiazol-2-yl)-3H-imidazo[4,5-b]pyridin-5-yl)piperidin-3-yl)(pyrrolidin-1-yl)methanone], for which the IC50 under setting [1] came to 3.18 nM.

On to `CNS(=O)(=O)c1cccc(-c2nc3ccc(N4CCC[C@@H](C(=O)N5CCCC5)C4)nc3[nH]2)c1` [Example 8, (R)-N-Methyl-3-(5-(3-(pyrrolidine-1-carbonyl)piperidin-1-yl)-3H-imidazo[4,5-b]pyridin-2-yl)benzenesulfonamide], for which, under setting [1], the 50% inhibitory concentration (IC50) was 21.1 nM.

In the case of `O=C([C@@H]1CCCN(c2ccc3nc(-c4ccnc(C5CC5)n4)[nH]c3n2)C1)N1CC(F)(F)C1` [Example 176, (R)-(1-(2-(2-Cyclopropylpyrimidin-4-yl)-3H-imidazo[4,5-b]pyridin-5-yl)piperidin-3-yl)(3,3-difluoroazetidin-1-yl)methanone], the half-inhibitory concentration (IC50) under setting [1] amounted to 73.4 nM.

The values above are taken from patent publication US9296745B2, “Diacylglycerol acyltransferase 2 inhibitors” (Pfizer Inc., priority 2012, dated 2016).
